Data as given in ChEMBL document CHEMBL1201862, “PubChem BioAssay data set” (2004).
Active and inactive are the calls of the source.

Assays:
Type in all cases: functional
[1] = molecular target: Ras and Rab interactor 1/Tyrosine-protein kinase ABL1 (Homo sapiens, UniProt P00519+Q13671);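 note: biochemical TR-FRET dose-response test measuring inhibition of binding between Rin1 and Abl proteins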
[2] = molecular target: T1, Sentrin-specific protease 6 (Homo sapiens, UniProt Q9GZR1); assay: SAR Analysis of small molecule inhibitors of Sentrin-specific protease 6 (SENP6) using a Luminescent assay. [Related pubchem assays (depositor defined):AID2582, AID2599]
T1 sequence (Q9GZR1 whole entry): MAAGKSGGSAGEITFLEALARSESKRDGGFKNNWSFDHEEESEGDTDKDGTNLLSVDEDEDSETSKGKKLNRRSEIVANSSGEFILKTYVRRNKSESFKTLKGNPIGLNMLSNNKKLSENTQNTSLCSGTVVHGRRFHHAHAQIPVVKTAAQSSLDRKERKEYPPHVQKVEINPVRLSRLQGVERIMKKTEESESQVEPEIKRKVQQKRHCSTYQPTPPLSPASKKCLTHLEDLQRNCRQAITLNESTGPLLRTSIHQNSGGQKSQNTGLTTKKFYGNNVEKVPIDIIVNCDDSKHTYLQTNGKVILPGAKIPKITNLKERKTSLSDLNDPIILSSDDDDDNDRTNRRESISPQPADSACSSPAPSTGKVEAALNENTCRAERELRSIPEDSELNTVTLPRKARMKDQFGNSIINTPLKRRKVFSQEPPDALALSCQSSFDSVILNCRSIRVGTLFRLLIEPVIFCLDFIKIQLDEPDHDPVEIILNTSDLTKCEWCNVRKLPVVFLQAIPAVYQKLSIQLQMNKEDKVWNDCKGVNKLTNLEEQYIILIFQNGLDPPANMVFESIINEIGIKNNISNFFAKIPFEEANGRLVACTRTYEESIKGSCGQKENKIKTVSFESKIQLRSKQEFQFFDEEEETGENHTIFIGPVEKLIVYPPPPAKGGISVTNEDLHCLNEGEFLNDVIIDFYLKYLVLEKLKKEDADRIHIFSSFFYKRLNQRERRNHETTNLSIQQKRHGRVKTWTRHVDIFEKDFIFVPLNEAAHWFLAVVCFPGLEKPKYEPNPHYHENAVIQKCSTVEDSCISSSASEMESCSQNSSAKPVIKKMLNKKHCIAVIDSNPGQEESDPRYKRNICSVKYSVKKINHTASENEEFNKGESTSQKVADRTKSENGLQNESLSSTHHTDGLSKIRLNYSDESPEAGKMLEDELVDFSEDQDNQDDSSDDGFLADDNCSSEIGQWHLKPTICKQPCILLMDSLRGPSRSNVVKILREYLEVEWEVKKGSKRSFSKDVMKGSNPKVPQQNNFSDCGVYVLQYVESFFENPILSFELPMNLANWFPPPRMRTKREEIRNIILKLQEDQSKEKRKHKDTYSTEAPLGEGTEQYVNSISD

[3] = molecular target: T2, Sentrin-specific protease 8 (Homo sapiens, UniProt Q96LD8); assay: SENP8 protease inhibitors, SAR follow-up, biochemical, luminescence (AID 504501)
T2 sequence (Q96LD8 whole entry): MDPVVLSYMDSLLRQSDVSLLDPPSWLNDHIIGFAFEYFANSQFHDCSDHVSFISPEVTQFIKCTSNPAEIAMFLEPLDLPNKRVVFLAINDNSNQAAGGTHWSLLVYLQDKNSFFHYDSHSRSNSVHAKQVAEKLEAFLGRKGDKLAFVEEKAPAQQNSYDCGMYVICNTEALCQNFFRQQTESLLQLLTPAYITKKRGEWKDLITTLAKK

[4] = molecular target: T3, Sentrin-specific protease 7 (Homo sapiens, UniProt Q9BQF6); assay: SENP7 protease inhibitors, SAR follow-up, biochemical, luminescence (AID 504497)
T3 sequence (Q9BQF6 whole entry): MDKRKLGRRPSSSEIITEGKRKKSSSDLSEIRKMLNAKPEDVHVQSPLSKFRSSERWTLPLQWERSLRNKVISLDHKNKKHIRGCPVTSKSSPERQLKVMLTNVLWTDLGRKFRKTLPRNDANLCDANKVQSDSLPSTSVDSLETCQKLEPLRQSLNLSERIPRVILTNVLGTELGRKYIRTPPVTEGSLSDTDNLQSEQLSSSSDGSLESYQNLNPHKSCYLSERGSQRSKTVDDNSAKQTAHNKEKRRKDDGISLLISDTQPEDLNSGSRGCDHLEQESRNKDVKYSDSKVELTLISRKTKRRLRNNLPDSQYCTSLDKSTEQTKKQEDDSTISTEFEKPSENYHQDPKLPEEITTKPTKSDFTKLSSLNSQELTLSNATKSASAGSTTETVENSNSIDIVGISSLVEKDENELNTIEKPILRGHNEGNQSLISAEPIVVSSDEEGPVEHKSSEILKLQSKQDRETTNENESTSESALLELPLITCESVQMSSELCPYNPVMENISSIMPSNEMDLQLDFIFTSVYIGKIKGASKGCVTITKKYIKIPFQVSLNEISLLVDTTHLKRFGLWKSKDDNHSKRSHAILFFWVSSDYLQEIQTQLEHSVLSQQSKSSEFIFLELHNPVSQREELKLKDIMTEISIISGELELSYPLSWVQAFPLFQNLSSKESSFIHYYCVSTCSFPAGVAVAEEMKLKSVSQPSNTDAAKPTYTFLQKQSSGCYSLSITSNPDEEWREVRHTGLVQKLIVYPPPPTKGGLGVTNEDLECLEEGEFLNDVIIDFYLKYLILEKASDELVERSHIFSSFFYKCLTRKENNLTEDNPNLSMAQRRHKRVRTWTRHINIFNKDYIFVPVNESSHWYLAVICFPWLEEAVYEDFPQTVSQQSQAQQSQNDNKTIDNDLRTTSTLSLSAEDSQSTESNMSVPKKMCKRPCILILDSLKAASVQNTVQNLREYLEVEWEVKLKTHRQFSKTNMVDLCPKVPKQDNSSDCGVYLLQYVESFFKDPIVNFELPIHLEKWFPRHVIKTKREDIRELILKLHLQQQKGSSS

Caspase-3 = molecular target: T4, Caspase-3 (Homo sapiens, UniProt P42574); assay: SAR Analysis of small molecule inhibitors of Sentrin-specific proteases (SENPs) using a Caspase-3 Selectivity assay. [Related pubchem assays (depositor defined):AID2540, AID2599, AID434973, AID489001]
T4 sequence (P42574 whole entry): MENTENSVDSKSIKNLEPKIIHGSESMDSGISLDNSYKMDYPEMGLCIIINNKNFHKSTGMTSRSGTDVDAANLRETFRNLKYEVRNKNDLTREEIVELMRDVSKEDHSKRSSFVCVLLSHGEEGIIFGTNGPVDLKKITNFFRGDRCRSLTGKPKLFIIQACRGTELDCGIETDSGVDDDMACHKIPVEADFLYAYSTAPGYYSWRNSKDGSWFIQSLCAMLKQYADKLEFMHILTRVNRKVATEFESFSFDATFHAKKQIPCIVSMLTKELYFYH

Protein RecA = molecular target: T5, Protein RecA (Mycobacterium tuberculosis, UniProt P9WHJ3); assay: Fluorescence Cell-Free Homogeneous Dose Retest to Identify Inhibitors of RecA-Intein Splicing Activity. [Related pubchem assays (depositor defined):AID2097, AID2223, AID489010, AID492950]
T5 sequence (P9WHJ3 whole entry): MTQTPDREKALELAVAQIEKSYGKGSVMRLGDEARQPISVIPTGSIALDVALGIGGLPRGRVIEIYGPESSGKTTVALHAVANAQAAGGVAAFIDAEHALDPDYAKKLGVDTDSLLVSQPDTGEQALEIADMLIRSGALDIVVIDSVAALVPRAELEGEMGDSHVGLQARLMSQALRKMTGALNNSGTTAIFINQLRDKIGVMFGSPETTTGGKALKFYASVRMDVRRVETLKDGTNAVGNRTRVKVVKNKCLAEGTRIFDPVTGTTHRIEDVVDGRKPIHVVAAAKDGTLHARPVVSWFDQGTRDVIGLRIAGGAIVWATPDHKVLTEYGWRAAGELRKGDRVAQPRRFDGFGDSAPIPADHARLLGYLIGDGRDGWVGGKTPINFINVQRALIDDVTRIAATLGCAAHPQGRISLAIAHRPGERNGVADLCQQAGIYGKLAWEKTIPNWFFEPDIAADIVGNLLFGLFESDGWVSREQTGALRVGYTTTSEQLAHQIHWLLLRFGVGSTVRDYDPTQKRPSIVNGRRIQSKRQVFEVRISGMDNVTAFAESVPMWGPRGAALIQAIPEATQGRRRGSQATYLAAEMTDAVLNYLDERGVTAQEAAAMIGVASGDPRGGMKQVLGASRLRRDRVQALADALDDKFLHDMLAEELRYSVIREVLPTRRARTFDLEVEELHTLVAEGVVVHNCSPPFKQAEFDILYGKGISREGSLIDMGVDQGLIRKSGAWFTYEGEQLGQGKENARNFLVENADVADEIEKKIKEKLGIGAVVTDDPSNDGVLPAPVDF

[5] = molecular target: T6, Replicative DNA helicase DnaB (Mycobacterium tuberculosis, UniProt P9WMR3); assay: DnaB intein splicing inhibitors, dose response, biochemical, cell-free fluorescence (AID 449749)
T6 sequence (P9WMR3 whole entry): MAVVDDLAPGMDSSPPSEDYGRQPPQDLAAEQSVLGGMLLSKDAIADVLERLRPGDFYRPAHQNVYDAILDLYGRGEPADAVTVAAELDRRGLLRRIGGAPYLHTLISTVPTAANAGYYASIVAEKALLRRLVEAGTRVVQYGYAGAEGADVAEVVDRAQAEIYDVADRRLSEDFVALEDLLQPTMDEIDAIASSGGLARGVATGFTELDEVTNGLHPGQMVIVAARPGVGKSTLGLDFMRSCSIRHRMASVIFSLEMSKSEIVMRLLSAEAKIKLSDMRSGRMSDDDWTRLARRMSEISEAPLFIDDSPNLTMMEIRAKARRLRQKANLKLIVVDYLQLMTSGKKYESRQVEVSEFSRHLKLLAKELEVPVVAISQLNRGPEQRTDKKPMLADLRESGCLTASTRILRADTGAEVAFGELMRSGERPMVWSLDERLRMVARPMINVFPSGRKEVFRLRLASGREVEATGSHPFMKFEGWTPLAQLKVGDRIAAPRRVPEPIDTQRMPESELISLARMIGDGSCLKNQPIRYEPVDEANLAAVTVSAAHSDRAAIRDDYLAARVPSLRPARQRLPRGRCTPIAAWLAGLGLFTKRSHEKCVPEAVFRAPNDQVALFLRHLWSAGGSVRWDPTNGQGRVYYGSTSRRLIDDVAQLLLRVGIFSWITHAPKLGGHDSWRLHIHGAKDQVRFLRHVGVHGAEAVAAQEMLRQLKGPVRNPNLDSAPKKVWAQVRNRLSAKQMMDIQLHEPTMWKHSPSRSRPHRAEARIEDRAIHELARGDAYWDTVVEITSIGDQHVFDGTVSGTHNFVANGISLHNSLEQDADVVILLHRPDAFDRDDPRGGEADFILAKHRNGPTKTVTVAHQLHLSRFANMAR

Vero = Vero cell cytotoxicity, cytotoxicity control for flavivirus capping enzyme inhibitors (AID 588742); conditions: Chlorocebus sabaeus
Genome polyprotein = Genome polyprotein (dengue virus type 2, UniProt P29990); assay: Dengue-2 NS5 methyltransferase inhibitors, primary screen, biochemical, confirmation dose response (AID 588689)
Sequence of Genome polyprotein (P29990 2492-3391 limits assumed): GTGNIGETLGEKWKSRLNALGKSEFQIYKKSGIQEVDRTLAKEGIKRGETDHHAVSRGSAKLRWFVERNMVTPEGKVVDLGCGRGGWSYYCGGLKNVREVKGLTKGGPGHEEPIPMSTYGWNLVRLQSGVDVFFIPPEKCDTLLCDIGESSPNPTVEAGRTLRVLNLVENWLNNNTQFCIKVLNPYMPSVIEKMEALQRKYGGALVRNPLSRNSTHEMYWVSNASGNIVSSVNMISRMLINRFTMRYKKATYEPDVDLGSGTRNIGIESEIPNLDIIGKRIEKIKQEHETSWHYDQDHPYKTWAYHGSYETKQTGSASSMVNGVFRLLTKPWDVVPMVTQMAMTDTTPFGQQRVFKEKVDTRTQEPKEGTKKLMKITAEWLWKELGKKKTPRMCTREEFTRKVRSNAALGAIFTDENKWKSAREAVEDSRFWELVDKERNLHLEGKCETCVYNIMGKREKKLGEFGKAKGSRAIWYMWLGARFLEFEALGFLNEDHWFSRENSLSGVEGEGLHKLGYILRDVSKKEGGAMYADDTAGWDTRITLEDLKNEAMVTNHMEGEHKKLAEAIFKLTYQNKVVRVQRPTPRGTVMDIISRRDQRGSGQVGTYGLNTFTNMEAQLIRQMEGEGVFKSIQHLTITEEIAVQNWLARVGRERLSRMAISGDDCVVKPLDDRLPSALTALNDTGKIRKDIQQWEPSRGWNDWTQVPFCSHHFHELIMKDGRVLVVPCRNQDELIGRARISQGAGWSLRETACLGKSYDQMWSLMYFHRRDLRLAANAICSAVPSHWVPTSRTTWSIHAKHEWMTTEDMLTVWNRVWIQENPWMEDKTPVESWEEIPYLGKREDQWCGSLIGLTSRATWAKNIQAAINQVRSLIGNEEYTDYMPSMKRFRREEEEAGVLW

Cysteine protease ATG4B = molecular target: T7, Cysteine protease ATG4B (Homo sapiens, UniProt Q9Y4P1);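 note: Fluorescence-based dose-response confirmation assay measuring inhibition of ATG4B activity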
T7 sequence (Q9Y4P1 whole entry): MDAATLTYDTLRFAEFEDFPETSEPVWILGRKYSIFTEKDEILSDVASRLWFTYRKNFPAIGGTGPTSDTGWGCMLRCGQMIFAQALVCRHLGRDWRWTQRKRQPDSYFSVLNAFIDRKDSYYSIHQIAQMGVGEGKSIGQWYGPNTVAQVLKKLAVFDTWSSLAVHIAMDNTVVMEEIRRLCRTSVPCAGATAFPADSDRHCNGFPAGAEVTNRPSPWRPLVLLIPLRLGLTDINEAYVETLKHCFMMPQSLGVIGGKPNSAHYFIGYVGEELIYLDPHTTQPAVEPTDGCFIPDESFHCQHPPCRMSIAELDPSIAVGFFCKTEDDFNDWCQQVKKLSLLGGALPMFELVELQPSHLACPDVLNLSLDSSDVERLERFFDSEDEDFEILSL

Phospholipase A2 = Phospholipase A2 (Homo sapiens, UniProt P04054);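 note: confirmatory dose-response counterscreen on phospholipase A2, testing hits that came from an ultra-high-throughput screen for ATG4B inhibitors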
Sequence of Phospholipase A2 (P04054 whole entry): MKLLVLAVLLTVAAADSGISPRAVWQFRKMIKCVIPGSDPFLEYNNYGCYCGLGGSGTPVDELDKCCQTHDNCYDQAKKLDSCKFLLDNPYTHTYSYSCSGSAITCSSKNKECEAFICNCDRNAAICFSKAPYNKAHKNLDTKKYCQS

Sequence of Ras and Rab interactor 1/Tyrosine-protein kinase ABL1 (P00519 whole entry): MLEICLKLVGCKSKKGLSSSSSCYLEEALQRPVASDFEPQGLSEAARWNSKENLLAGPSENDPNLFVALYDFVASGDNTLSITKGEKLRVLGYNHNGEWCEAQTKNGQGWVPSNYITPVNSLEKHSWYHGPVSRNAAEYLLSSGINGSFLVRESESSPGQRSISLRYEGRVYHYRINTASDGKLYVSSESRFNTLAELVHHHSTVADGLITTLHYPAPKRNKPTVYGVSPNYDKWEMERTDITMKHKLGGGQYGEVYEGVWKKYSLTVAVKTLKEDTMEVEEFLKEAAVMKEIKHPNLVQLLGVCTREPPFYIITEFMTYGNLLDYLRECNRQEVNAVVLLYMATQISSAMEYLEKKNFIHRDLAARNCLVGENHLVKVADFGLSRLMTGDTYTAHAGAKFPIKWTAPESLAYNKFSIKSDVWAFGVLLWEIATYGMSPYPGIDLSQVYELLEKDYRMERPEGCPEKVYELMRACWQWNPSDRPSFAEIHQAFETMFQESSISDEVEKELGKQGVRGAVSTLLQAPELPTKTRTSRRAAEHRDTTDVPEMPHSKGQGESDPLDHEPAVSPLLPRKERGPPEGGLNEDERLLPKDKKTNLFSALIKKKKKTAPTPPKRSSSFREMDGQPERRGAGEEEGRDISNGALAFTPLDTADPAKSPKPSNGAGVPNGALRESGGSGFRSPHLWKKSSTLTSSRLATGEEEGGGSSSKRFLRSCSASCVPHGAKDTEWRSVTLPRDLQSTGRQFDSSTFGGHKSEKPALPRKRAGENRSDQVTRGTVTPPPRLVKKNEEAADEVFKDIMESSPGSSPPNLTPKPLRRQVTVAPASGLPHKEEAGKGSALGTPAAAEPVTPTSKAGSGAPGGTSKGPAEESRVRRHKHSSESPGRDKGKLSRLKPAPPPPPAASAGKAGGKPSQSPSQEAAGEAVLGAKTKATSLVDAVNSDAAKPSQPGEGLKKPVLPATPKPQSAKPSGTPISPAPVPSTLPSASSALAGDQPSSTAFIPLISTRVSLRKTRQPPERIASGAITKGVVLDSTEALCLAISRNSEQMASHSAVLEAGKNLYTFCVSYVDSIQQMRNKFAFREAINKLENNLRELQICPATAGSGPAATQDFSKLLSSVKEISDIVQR
Sequence of Ras and Rab interactor 1/Tyrosine-protein kinase ABL1 (Q13671 whole entry): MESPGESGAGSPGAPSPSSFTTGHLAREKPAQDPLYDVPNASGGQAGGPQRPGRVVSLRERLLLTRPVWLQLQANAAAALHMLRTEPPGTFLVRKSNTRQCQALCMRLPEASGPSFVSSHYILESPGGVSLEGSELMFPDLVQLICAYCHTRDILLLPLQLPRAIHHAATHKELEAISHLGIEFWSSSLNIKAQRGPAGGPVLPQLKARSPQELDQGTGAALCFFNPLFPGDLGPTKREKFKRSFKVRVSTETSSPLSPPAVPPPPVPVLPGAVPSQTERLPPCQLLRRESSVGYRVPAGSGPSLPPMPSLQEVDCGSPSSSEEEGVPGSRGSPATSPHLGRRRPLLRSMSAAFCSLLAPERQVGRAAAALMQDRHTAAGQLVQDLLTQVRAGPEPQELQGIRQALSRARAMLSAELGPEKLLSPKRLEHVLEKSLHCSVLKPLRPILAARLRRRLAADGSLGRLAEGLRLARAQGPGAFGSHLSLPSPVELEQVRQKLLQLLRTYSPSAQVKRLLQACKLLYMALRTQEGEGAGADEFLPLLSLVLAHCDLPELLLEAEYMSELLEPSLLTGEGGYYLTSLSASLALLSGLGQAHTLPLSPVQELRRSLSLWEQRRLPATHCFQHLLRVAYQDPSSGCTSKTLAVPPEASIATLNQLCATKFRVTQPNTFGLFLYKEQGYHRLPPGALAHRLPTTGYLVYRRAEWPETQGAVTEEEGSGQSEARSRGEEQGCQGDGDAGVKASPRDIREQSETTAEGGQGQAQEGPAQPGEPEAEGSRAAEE

For CCOc1ccc(CCNC(=O)CN2C(=O)c3cccnc3Oc3ccc(Cl)cc32)cc1, the IC50 [1] was > 73.5 µM (inactive).
Cc1cc(NC(=O)COC(=O)CNC(=O)c2sc3ccccc3c2Cl)no1 was tested, and the IC50 [2] was > 99 µM (inactive), the IC50 [3] was > 99 µM (inactive) and the IC50 [4] was > 99 µM (inactive). The IC50 (Caspase-3) was > 99 µM (inactive).
With Cc1nn(Cc2ccccc2)c2c1C(c1cccc(Cl)c1)C(C#N)=C(N)O2 (centres undefined) the EC50 (Protein RecA) was 3.26 µM (active), the AC50 [5] was 5.7 µM (active) and the CC50 (Vero) was > 40 µM (active). The IC50 (Genome polyprotein) was > 100 µM (active).
In the case of Cc1csc(C(=O)Nc2nc3ccc(Cl)cc3s2)c1, the IC50 [2] is reported as > 99 µM (inactive), the IC50 [3] is reported as > 99 µM (inactive) and the IC50 [4] is reported as 89 µM (active). For the same compound, the IC50 (Caspase-3) was 36 µM (active).
Nc1nn(-c2ccccc2)c(N)c1N=Nc1ccccc1 was tested, and the IC50 (Cysteine protease ATG4B) was 11.9 µM (active) and the IC50 (Phospholipase A2) was 9 µM (active).
With O=C(O)c1cccc(CN2C(=O)S/C(=C/c3cccc([N+](=O)[O-])c3)C2=O)c1 the CC50 (Vero) was > 40 µM (active) and the IC50 (Genome polyprotein) was 83.2 µM (active).
With COc1ccc2nc(NC(=O)c3ccc4c(c3)OCCO4)sc2c1 the IC50 [2] was > 99 µM (inactive), the IC50 [3] was > 99 µM (inactive) and the IC50 [4] was > 99 µM (inactive). The IC50 (Caspase-3) was > 99 µM (inactive).
For CC(C)(C)c1ccccc1/N=C/c1ccc2ccccc2n1, the IC50 (Cysteine protease ATG4B) was 14.2 µM (active) and the IC50 (Phospholipase A2) was 16.2 µM (active).
In the case of COc1ccc(CCNc2cc(=O)[nH]c(N)n2)cc1, the IC50 [1] is reported as 5.15 µM (active).
